# System: KRAS‐mutant NSCLC cells in 3D culture
# Assay: Cell proliferation in 3D cell culture (ATP chemiluminescence)
# Assay type: cell-based
# Protocol: supplies are listed in Supplementary Table S5. […]
# For the adherent cell viability assay, cells in the logarithmic growth phase were seeded in 96-well culture plates at a density of 5×103 well-1 and incubated overnight. Diluted compounds or DMSO were added, or specific treatments were incubated at 37 °C and 5% CO2 for 24 h or 48 h. Cell viability was determined using CCK-8 or CellLightTM Cell Viability Assay Kit, according to the manufacturer's protocol. The luminescence signals of the treated samples were normalized to those of the DMSO group.
# For spherical cell viability assays, cells in the logarithmic growth phase were inoculated ata density of 4×10^3 well-1 into 96-well spherical cell microplates and incubated at 37 °C, 5% CO2 for 24 h or 48 h. Cell viability was measured using the CellTiter-Glo® Luminescent Cell Viability 3D Cell Viability Assay Kit, according to the manufacturer’s protocol. The remaining steps were the same as those described above. […]
# Figure S7. Targeting SHP2 and XIAP produces a synthetic lethal effect. (A) Effects of NSC-87877 on cell viability of A549 and NCI-H2122 cells after 24 and 48 h were determined using the CCK-8. Bars, ± SEM. […]
# tailed Student’s t-test).(K) Effects of SHP099 and GDC-0152 separately and in combination with […] on the cell viability of human KRAS-WT and -mutant cells were assessed using a colony formation assay. […]
smiles,measurement,value
CC1(N)CCN(c2cnc(-c3cccc(Cl)c3Cl)c(N)n2)CC1 [SHP099],effect on cell proliferation in 3D cell culture,partially inhibited cell proliferation
